Where two headings read alike, the source gives them in different places.
What was measured:
Human full-length ERα = target: T1, Human full-length ERα (Homo sapiens, UniProt P03372); test: ERα cell-based luciferase reporter assay, agonist mode, transiently transfected HEK293 cells; conditions: 24 h; for EC50: low = activity detected but too low for exact value
T1 construct: expression vector encoding human full-length ERα or ERβ; expressed in transfected cells; host or cells: HEK293, transiently transfected
T1 sequence (P03372 1-595): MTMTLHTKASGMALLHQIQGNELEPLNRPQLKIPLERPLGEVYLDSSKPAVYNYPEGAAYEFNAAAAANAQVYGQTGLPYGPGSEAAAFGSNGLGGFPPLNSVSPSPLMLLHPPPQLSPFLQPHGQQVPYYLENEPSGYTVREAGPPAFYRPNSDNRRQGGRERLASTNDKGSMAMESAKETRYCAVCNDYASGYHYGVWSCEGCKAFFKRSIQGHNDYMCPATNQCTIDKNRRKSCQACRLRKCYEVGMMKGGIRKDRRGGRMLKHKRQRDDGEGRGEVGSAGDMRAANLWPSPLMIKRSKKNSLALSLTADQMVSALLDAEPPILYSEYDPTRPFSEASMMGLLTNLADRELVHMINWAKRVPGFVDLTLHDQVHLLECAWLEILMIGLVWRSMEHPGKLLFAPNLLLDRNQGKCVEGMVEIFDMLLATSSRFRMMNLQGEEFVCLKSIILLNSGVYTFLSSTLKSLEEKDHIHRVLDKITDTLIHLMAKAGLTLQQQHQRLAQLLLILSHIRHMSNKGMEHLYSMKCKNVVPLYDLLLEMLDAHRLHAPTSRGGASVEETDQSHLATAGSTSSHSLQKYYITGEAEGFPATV
Description: (§1) The selectivity and potency of the various compounds was carried out via in vitro testing in ERα and ERβ cell-based reporter assays. The activity of the selected compounds was determined in the cell-based reporter assays in HEK293 cells.
(§2) The HEK293 cells were propagated in a monolayer in phenol red-free DMEM supplemented with 10% fetal bovine serum, 2 mM Glutamax and penicillin/streptomycin (Thermo Fisher Scientific, MA, USA) and incubated in a 5% CO2 humidified atmosphere at 37° C. Right before transfection, the growth medium was changed to phenol red-free DMEM supplemented with 4% HyClone Fetal Bovine Serum, Charcoal/Dextran Treated (GE Healthcare Life Sciences, USA) and 2 mM Glutamax (starvation medium). The cells were transfected with the expression vector encoding human full-length ERα or ERβ and with the reporter vector containing 3 repeats of estrogen responsive elements (ERE) followed by the minimal thymidine kinase promoter from the herpes simplex virus in the pGL4 vector (Promega, USA). Luciferase served as a reporter gene. The transfection was carried out in 10 cm dishes (Nunc) in the starvation medium. After 24 hours, the cells were trypsinized, counted and seeded to cell culture treated, white, solid 1536-well plates (Corning Inc., NY, USA) at 1500 cells/well in 4 μl of total media volume. The compounds to be tested were diluted in DMSO and transferred to the cells using an acoustic dispenser Echo 520 (Labcyte). The compounds were tested at least at 12 different concentration points in the range from 10 μM to 100 pM, in triplicates. Luciferase activity was determined after 24 hours of incubation with compounds with Britelite plus luciferase reporter gene assay reagent (Perkin Elmer, USA), according to the manufacturer protocol. The luciferase signal was measured on an Envison multimode plate reader (Perkin Elmer, USA). Data were collected and processed using an in-house built LIMS system ScreenX and GraphPad Prism software. EC50 values were calculated using a regression function (dose response, variable slope).

Human full-length ERβ = target: T2, Human full-length ERβ (Homo sapiens, UniProt Q92731); test: ERβ cell-based luciferase reporter assay, agonist mode, transiently transfected HEK293 cells
T2 construct: expression vector encoding human full-length ERα or ERβ; expressed in transfected cells; host or cells: HEK293, transiently transfected
Description: as §1, §2

Human full-length AR = target: T3, Human full-length AR (Homo sapiens, UniProt P10275); test: AR cell-based luciferase reporter assay, agonist and antagonist mode, stable U2OS reporter cells; conditions: agonist mode and antagonist mode (2 nM dihydrotestosterone), 100 μM to 100 pM, 24 hours
T3 sequence (P10275 1-920): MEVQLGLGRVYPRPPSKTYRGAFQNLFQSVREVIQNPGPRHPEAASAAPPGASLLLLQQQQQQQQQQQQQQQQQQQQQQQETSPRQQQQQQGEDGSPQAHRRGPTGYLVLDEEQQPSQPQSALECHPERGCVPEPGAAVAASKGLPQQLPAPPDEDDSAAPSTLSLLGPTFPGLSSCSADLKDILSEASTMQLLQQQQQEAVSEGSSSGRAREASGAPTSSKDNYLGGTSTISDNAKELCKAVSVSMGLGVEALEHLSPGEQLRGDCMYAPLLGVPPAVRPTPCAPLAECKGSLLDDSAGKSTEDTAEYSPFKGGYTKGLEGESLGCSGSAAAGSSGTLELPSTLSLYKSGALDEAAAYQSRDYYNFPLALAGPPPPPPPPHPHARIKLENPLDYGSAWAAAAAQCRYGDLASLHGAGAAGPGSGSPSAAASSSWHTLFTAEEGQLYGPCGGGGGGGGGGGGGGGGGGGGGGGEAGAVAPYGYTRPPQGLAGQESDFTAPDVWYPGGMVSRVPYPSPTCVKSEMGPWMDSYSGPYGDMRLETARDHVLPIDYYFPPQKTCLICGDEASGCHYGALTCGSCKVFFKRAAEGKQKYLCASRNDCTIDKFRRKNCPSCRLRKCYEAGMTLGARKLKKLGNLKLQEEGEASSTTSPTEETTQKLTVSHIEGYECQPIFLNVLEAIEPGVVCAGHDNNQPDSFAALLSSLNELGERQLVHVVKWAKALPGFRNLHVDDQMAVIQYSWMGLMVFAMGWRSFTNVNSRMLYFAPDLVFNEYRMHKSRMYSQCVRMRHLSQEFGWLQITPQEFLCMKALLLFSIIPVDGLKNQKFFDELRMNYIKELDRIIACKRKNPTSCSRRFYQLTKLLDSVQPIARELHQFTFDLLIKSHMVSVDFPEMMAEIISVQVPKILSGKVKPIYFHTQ

Human full-length GR = target: T4, Human full-length GR (Homo sapiens, UniProt P04150); test: GR cell-based luciferase reporter assay, agonist and antagonist mode, stable U2OS reporter cells; conditions: agonist mode and antagonist mode (10 nM dexamethasone), 100 μM to 100 pM, 24 hours
T4 sequence (P04150 1-777): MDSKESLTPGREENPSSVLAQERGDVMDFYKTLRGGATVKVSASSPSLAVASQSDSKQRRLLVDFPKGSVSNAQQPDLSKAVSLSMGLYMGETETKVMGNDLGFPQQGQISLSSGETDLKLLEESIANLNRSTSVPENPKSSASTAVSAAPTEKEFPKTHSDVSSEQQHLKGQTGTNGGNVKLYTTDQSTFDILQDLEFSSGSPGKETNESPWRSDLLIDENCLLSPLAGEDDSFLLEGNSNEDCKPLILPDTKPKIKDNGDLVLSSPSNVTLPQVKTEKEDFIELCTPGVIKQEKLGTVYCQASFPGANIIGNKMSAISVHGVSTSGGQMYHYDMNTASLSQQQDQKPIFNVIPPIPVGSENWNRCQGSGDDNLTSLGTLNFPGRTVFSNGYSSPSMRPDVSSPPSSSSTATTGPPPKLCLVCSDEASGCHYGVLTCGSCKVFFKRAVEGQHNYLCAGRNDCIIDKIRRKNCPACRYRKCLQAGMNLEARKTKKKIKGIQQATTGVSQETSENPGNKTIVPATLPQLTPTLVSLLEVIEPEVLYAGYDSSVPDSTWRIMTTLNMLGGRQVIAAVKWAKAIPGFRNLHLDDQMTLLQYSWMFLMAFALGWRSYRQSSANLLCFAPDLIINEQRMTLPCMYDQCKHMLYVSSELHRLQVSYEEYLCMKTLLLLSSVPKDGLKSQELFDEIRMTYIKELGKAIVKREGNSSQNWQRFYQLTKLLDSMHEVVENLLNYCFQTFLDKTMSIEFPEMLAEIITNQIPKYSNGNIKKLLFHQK

HEK293 cells = test: HEK293 viability assay (ATPlite 1step); format: cell-based, human; conditions: non-transfected HEK293, 24 h, ATP level; for HEK293 viability IC50 (μM): Low = activity detected but too low for exact value
Description: The non-transfected HEK293 cells were seeded to the 384-well plates at 5000 cell/well, compounds were added and the timing of all subsequent steps was exactly the same as in the reporter assays. […] After 24 h of compound incubation with cells, the viability of cells was measured by determining the ATP level in the samples using luciferase cell viability assay, ATPlite 1step (Perkin Elmer, USA).

[1] = Trial 2 (believed more reliable)

T2 sequence (Q92731 whole entry): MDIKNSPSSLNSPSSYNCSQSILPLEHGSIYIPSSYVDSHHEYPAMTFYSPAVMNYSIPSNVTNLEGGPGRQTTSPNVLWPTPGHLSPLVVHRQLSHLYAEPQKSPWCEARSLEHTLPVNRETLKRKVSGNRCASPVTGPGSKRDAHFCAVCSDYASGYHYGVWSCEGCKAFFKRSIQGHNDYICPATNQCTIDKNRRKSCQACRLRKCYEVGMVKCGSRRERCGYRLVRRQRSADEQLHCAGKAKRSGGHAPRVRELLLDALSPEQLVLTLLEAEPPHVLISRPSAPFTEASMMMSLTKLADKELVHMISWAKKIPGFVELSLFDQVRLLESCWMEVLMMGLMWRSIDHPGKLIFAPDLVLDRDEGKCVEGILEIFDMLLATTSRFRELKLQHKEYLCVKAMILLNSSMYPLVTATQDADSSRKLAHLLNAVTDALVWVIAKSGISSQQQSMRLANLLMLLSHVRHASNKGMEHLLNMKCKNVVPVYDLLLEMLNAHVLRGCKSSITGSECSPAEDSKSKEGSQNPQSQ

## CCCc1c(-c2ccc(O)cc2)nn(-c2ccc(O)cc2)c1-c1ccc(O)cc1 [PPT, Propyl pyrazole triol]
Human full-length ERα
  ERα Efficacy (%): 101%
Human full-length ERα; read-out: ERα EC50
  EC50: 3.3 nM
Human full-length ERα; log10 of EC50, negative values, read-out: ERα Log(EC50) (converted)
  EC50: 3.31 nM
Human full-length ERβ; 24 h, low = activity detected but too low for exact value
  ERβ EC50 (nM): low
Human full-length ERβ; log10 of EC50, negative values, 24 h, low = activity detected but too low for exact value
  ERβ Log(EC50) (M): low

## N#CC(Cc1ccc(O)cc1)c1ccc(O)cc1 (centres unmarked) [DPN, Diarylpropionitrile]
Human full-length AR
  agonistic or antagonistic activities on AR: no agonistic or antagonistic activities
Human full-length GR
  agonistic or antagonistic activities on GR: no agonistic or antagonistic activities
HEK293 cells
  HEK293 viability IC50 (μM): Low

## C[C@]12CC[C@@H]3c4ccc(O)cc4CC[C@H]3[C@@H]1CC[C@@H]2O [Compound E2, Estradiol]
Human full-length GR
  agonistic or antagonistic activities on GR: no agonistic or antagonistic activities
HEK293 cells
  HEK293 viability IC50 (μM): Low

## 1-(4-hydoxyphenyl)-12-(1-hydroxyheptyl)-1,12-dicarba-closo-dodecaborane [Compound 06]
Human full-length GR
  agonistic or antagonistic activities on GR: no agonistic or antagonistic activities
Human full-length ERβ; Trial 1
  ERβ Efficacy (%): 100%
Human full-length ERβ; Trial 1, log10 of EC50
  ERβ Log(EC50) (M): −7.71 M
Human full-length ERβ; Trial 1, read-out: ERβ EC50
  EC50: 19 nM
Human full-length ERβ; [1]
  ERβ Efficacy (%): 103%
Human full-length ERβ; Trial 2 (believed more reliable), log10 of EC50
  ERβ Log(EC50) (M): −7.76 M
Human full-length ERβ; Trial 2 (believed more reliable), read-out: ERβ EC50
  EC50: 17 nM
Human full-length ERβ; differs from Table 5, luciferase reporter assay in HEK cells, read-out: EC50 at ERβ
  EC50: 5 nM
HEK293 cells; Trial 1
  IC50: 18000 nM
HEK293 cells; [1]
  IC50: 17000 nM
